BindingDB's records for doi:10.1021/jm970836l (Hokuriku University, 1998)
pIC50: −log10 of the molar value.

Target: coffee bean alpha-galactosidase (Coffea arabica) (UniProt Q42656)
Experiment: Inhibitory activity measured against alpha-galactosidase of coffee bean by colorimetric assay using the p-nitrophenyl glycoside method

Chain of coffee bean alpha-galactosidase (Coffea arabica) (Q42656 whole entry, looked up): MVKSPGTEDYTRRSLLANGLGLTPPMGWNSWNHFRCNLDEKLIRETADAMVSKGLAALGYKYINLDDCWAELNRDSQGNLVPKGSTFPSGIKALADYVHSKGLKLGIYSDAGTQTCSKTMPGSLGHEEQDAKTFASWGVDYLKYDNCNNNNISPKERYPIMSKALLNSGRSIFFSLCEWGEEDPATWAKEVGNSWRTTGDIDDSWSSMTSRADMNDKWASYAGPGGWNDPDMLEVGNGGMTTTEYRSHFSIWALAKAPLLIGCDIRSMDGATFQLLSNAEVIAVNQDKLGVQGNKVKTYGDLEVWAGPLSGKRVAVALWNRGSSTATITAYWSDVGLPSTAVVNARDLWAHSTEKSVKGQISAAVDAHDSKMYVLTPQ

pIC50	Compound
4.10	OC[C@H]1N[C@H](CO)[C@H](O)C(O)[C@H]1O (some centres not stated)
5.19	OCC1NC(CO)[C@@H](O)C(O)C1O (stereo partly drawn) [(R)-2,6-Bis-hydroxymethyl-piperidine-3,4,5-triol]
